Each compound was assayed against Inosine-5'-monophosphate dehydrogenase (IMPDH) (Homo sapiens, UniProt P20839+P12268) (assay: Inhibitory activity against (IMPDH) inosine 5'-monophosphate dehydrogenase).
Assay type: protein assay

Question: With `CC(C)(C)NC(=O)C(=O)Nc1ccc(-c2cnco2)c(Cl)c1` as the compound, how does the IC50 read?
Answer: The IC50 was 0.18 µM.

Question: For `COc1cc(NC(=O)C(=O)NC(C)(C)C)ccc1-c1cnco1`, which IC50 is on record?
Answer: Its IC50 is 0.04 µM.

Question: `CC(C)(C)NC(=O)C(=O)Nc1ccc(-c2cnco2)cc1` was tested. Which IC50 did it give?
Answer: The IC50 was 20 µM.

Question: For `Cc1ncoc1-c1ccc(NC(=O)C(=O)NC(C)(C)C)cc1`, which IC50 is on record?
Answer: The IC50 was 14 µM.

Question: How did the IC50 turn out when `N#Cc1ccc2[nH]ccc2c1` was run?
Answer: The IC50 was 99 µM.

Question: `COc1ccc2[nH]cc(C(=O)CSc3ccncc3)c2c1` was tested. Which IC50 did it give?
Answer: Its IC50 is 32 µM.

Question: Which IC50 does the source give for `CCCCc1ncoc1-c1ccc(NC(=O)C(=O)NC(C)(C)C)cc1OC` here?
Answer: The IC50 was 27 µM.

Question: How did the IC50 turn out when `COc1ccc(NC(=O)C(=O)NC(C)(C)C)cc1-c1cnco1` was run?
Answer: The IC50 was 16 µM.

Question: `COc1cc(NC(=O)C(=O)NC(C)(C)C)ccc1-c1ccc[nH]1` was tested. Which IC50 did it give?
Answer: The IC50 was 2.4 µM.

Question: With `COc1cc(NC(=O)C(=O)NC(C)(C)C)ccc1-c1nc[nH]n1` as the compound, how does the IC50 read?
Answer: The IC50 was 15 µM.

Question: Which IC50 does the source give for `COc1ccc(C#N)c2ccccc12` here?
Answer: The IC50 was 31 µM.

Question: How did the IC50 turn out when `CCOc1cc(NC(=O)C(=O)NC(C)(C)C)ccc1-c1cnco1` was run?
Answer: Its IC50 is 1.3 µM.

Question: How did the IC50 turn out when `Nc1ccnc2cc(Cl)ccc12` was run?
Answer: Its IC50 is 168 µM.

Question: For `COc1ccc(NC(=O)C(=O)NC(C)(C)C)cc1OC`, which IC50 is on record?
Answer: The IC50 was 21 µM.

Question: For `COc1cc(NC(=O)C(=O)NC(C)(C)C)ccc1-c1ocnc1Cc1ccccc1`, which IC50 is on record?
Answer: The IC50 was 35 µM.

Question: How did the IC50 turn out when `CC(C)(C)NC(=O)C(=O)Nc1ccc(-c2cnco2)c(F)c1` was run?
Answer: The IC50 was 0.73 µM.

Question: Which IC50 does the source give for `COc1cc(NC(=O)C(=O)NC(C)(C)C)ccc1-c1ocnc1C` here?
Answer: The IC50 was 0.43 µM.

Question: For `COc1cc(NC(=O)C(=O)NC(C)(C)C)ccc1-c1ccco1`, which IC50 is on record?
Answer: Its IC50 is 8.1 µM.

Question: How did the IC50 turn out when `COc1cc(N)ccc1-c1cnco1` was run?
Answer: Its IC50 is 19 µM.

Question: `Cc1cc2c(cc1C)C(=O)C(C#N)CO2` (centres undefined) was tested. Which IC50 did it give?
Answer: The IC50 was 88 µM.

Question: `COc1cc(NC(=O)C(=O)NC(C)(C)C)ccc1-c1cocn1` was tested. Which IC50 did it give?
Answer: Its IC50 is 0.47 µM.

Question: With `Oc1cccc2[nH]c3ccccc3c12` as the compound, how does the IC50 read?
Answer: Its IC50 is 54 µM.

Question: How did the IC50 turn out when `N#Cc1c[nH]c2ccccc12` was run?
Answer: The IC50 was 32 µM.

Question: `CC(C)(C)NC(=O)C(=O)Nc1ccc(-c2cnco2)c(O)c1` was tested. Which IC50 did it give?
Answer: The IC50 was 4.4 µM.

Question: Which IC50 does the source give for `CC(C)(C)NC(=O)C(=O)Nc1ccc(-c2cnco2)c(C(F)(F)F)c1` here?
Answer: The IC50 was 18 µM.

Question: How did the IC50 turn out when `CC(=O)c1ccc(O)cc1C` was run?
Answer: The IC50 was 620 µM.

Question: With `CCc1cc(NC(=O)C(=O)NC(C)(C)C)ccc1-c1cnco1` as the compound, how does the IC50 read?
Answer: The IC50 was 1.2 µM.

Question: With `Cc1cc(NC(=O)C(=O)NC(C)(C)C)ccc1-c1cnco1` as the compound, how does the IC50 read?
Answer: Its IC50 is 0.2 µM.

Question: For `COc1cc(NC(=O)C(=O)NC(C)(C)C)ccc1-c1cncs1`, which IC50 is on record?
Answer: Its IC50 is 0.91 µM.

From ChEMBL document CHEMBL1136381, “Discovery of novel low molecular weight inhibitors of IMPDH via virtual needle screening” (Bioorg Med Chem Lett, 2003)
